Publication PMC5218480 (PLoS ONE, 2017)

System: MV-4-11 cells
Assay: Gene expression microarray analysis (Affymetrix PrimeView) and GSEA
Type: cell-based, human
Set-up: RFU PODN (11730768_x_at) / Fold change /veh PODN (11730768_x_at) / RFU LINC00158 (11744669_a_at) / Fold change /veh LINC00158 (11744669_a_at) / RFU DUSP10 (11751237_a_at) / Fold change /veh DUSP10 (11751237_a_at) / RFU ID3 (11757404_x_at) / Fold change /veh ID3 (11757404_x_at) / RFU PLEKHG5 (11737974_s_at) / Fold change /veh PLEKHG5 (11737974_s_at) / RFU LRRC4B (11730491_at) / Fold change /veh LRRC4B (11730491_at) / RFU GIMAP4 (11747438_a_at) / Fold change /veh GIMAP4 (11747438_a_at) / RFU KRT8 (11758183_x_at) / Fold change /veh KRT8 (11758183_x_at) / RFU CNN1 (11734310_a_at) / Fold change /veh CNN1 (11734310_a_at) / RFU VPS37D (11726825_at) / Fold change /veh VPS37D (11726825_at) / RFU C10orf10 (11716522_x_at) / Fold change /veh C10orf10 (11716522_x_at) / RFU KIR2DL2 /// KIR2DL4 /// KIR2DL5A /// KIR2DL5B /// KIR2DS1 /// KIR2DS2 /// KIR2DS3 /// KIR2DS4 /// KIR3DL3 /// KIR3DL3 /// KIR3DS1 (11738374_at) / Fold change /veh KIR2DL2 /// KIR2DL4 /// KIR2DL5A /// KIR2DL5B /// KIR2DS1 /// KIR2DS2 /// KIR2DS3 /// KIR2DS4 /// KIR3DL3 /// KIR3DL3 /// KIR3DS1 (11738374_at) / RFU C1QL1 (11718748_at) / Fold change /veh C1QL1 (11718748_at) / RFU TMPRSS4 (11747572_a_at) / Fold change /veh TMPRSS4 (11747572_a_at) / RFU HAMP (11756126_x_at) / Fold change /veh HAMP (11756126_x_at) / RFU RNFT2 (11725882_a_at) / Fold change /veh RNFT2 (11725882_a_at) / RFU NR4A2 (11747474_a_at) / Fold change /veh NR4A2 (11747474_a_at) / RFU ABCC12 (11746883_a_at) / Fold change /veh ABCC12 (11746883_a_at) / RFU TMEM136 (11760407_x_at) / Fold change /veh TMEM136 (11760407_x_at) / RFU CLDN22 /// WWC2 (11732394_at) / Fold change /veh CLDN22 /// WWC2 (11732394_at) / RFU HLA-DPB1 (11760878_x_at) / Fold change /veh HLA-DPB1 (11760878_x_at) / RFU SPINT1 (11716480_a_at) / Fold change /veh SPINT1 (11716480_a_at) / RFU GAP43 (11754022_s_at) / Fold change /veh GAP43 (11754022_s_at) / RFU A4GNT (11735810_at) / Fold change /veh A4GNT (11735810_at) / RFU PRB3 (11715151_x_at) / Fold change /veh PRB3 (11715151_x_at) / RFU TUBB4B (11761932_at) / Fold change /veh TUBB4B (11761932_at) / RFU CAPN14 (11732068_a_at) / Fold change /veh CAPN14 (11732068_a_at) / RFU TMCC2 (11721928_a_at) / Fold change /veh TMCC2 (11721928_a_at) / RFU IRGQ (11745062_a_at) / Fold change /veh IRGQ (11745062_a_at) / RFU FAM174B (11720279_a_at) / Fold change /veh FAM174B (11720279_a_at) / RFU TMPRSS4 (11748680_a_at) / Fold change /veh TMPRSS4 (11748680_a_at) / RFU FAM212B (11763350_a_at) / Fold change /veh FAM212B (11763350_a_at) / RFU PLEKHG5 (11743358_a_at) / Fold change /veh PLEKHG5 (11743358_a_at) / RFU ZSCAN30 (11745921_a_at) / Fold change /veh ZSCAN30 (11745921_a_at) / RFU CMKLR1 (11741424_a_at) / Fold change /veh CMKLR1 (11741424_a_at) / RFU LOC101060620 /// MAPK8IP1 (11723275_at) / Fold change /veh LOC101060620 /// MAPK8IP1 (11723275_at) / RFU SPTSSB (11747773_x_at) / Fold change /veh SPTSSB (11747773_x_at) / RFU PRSS12 (11739890_at) / Fold change /veh PRSS12 (11739890_at) / RFU BIN1 (11741810_x_at) / Fold change /veh BIN1 (11741810_x_at) / RFU WNT11 (11732464_a_at) / Fold change /veh WNT11 (11732464_a_at) / RFU C10orf10 (11716521_a_at) / Fold change /veh C10orf10 (11716521_a_at) / RFU C5orf56 (11738089_at) / Fold change /veh C5orf56 (11738089_at) / RFU CYB561 (11721691_x_at) / Fold change /veh CYB561 (11721691_x_at) / RFU ANKRD19P (11752326_a_at) / Fold change /veh ANKRD19P (11752326_a_at) / RFU OR2T12 /// OR2T33 /// OR2T8 (11738714_s_at) / Fold change /veh OR2T12 /// OR2T33 /// OR2T8 (11738714_s_at) / RFU VCAN (11748164_a_at) / Fold change /veh VCAN (11748164_a_at) / RFU JSRP1 (11732532_at) / Fold change /veh JSRP1 (11732532_at) / RFU KRTAP10-11 (11738290_x_at) / Fold change /veh KRTAP10-11 (11738290_x_at) / RFU MYO3A (11730013_a_at) / Fold change /veh MYO3A (11730013_a_at) / RFU EBF3 (11725865_a_at) / Fold change /veh EBF3 (11725865_a_at) / RFU CAMK2N1 (11719241_x_at) / Fold change /veh CAMK2N1 (11719241_x_at) / RFU C5orf56 (11738088_a_at) / Fold change /veh C5orf56 (11738088_a_at) / RFU OLFML3 (11715873_a_at) / Fold change /veh OLFML3 (11715873_a_at) / RFU LOC100653217 /// NTM (11731650_a_at) / Fold change /veh LOC100653217 /// NTM (11731650_a_at) / RFU MAPK11 (11762145_a_at) / Fold change /veh MAPK11 (11762145_a_at) / RFU FIZ1 (11724087_x_at) / Fold change /veh FIZ1 (11724087_x_at) / RFU OASL (11726364_x_at) / Fold change /veh OASL (11726364_x_at) / RFU SOX15 (11748057_x_at) / Fold change /veh SOX15 (11748057_x_at) / RFU CD79A (11719716_a_at) / Fold change /veh CD79A (11719716_a_at) / RFU HIST1H1D (11736915_at) / Fold change /veh HIST1H1D (11736915_at) / RFU CASKIN2 (11723855_a_at) / Fold change /veh CASKIN2 (11723855_a_at) / RFU LOC730098 (11760151_x_at) / Fold change /veh LOC730098 (11760151_x_at) / RFU OR4N2 (11742367_at) / Fold change /veh OR4N2 (11742367_at) / RFU PRRT2 (11749266_a_at) / Fold change /veh PRRT2 (11749266_a_at) / RFU SNX32 (11753110_a_at) / Fold change /veh SNX32 (11753110_a_at) / RFU CDHR5 (11726645_a_at) / Fold change /veh CDHR5 (11726645_a_at) / RFU RCAN1 (11760418_a_at) / Fold change /veh RCAN1 (11760418_a_at) / RFU FAM167A (11723789_a_at) / Fold change /veh FAM167A (11723789_a_at) / RFU FAM26E (11764081_at) / Fold change /veh FAM26E (11764081_at) / RFU ISYNA1 (11749810_s_at) / Fold change /veh ISYNA1 (11749810_s_at) / RFU ACY1 (11761880_at) / Fold change /veh ACY1 (11761880_at) / RFU 11764098_at / Fold change /veh 11764098_at / RFU SAMD14 (11745864_x_at) / Fold change /veh SAMD14 (11745864_x_at) / RFU NPB (11741838_a_at) / Fold change /veh NPB (11741838_a_at) / RFU TMPRSS6 (11731388_a_at) / Fold change /veh TMPRSS6 (11731388_a_at) / RFU KRTAP10-2 (11738614_at) / Fold change /veh KRTAP10-2 (11738614_at) / RFU ARHGAP8 /// PRR5-ARHGAP8 (11727945_x_at) / Fold change /veh ARHGAP8 /// PRR5-ARHGAP8 (11727945_x_at) / RFU KRTAP5-7 /// NADSYN1 (11734609_at) / Fold change /veh KRTAP5-7 /// NADSYN1 (11734609_at) / RFU RASL12 (11751679_a_at) / Fold change /veh RASL12 (11751679_a_at) / RFU CDKN2B (11736163_a_at) / Fold change /veh CDKN2B (11736163_a_at) / RFU PRF1 (11729649_at) / Fold change /veh PRF1 (11729649_at) / RFU, ZNF638 /// ZNF638-IT1 / Fold change vs veh, ZNF638 /// ZNF638-IT1 / RFU, PANK3 / Fold change vs veh, PANK3 / RFU, SH3YL1 / Fold change vs veh, SH3YL1 / RFU, ZEB2 / Fold change vs veh, ZEB2 / RFU, NRIP1 / Fold change vs veh, NRIP1 / RFU, PTTG1IP / Fold change vs veh, PTTG1IP / RFU, CAPN2 / Fold change vs veh, CAPN2 / RFU, MED14 / Fold change vs veh, MED14 / RFU, SNORA58 / Fold change vs veh, SNORA58 / RFU, C1orf63 / Fold change vs veh, C1orf63 / RFU, LRRFIP1 / Fold change vs veh, LRRFIP1 / RFU, NDUFAF7 / Fold change vs veh, NDUFAF7 / RFU, SLC12A2 / Fold change vs veh, SLC12A2 / RFU, IBTK / Fold change vs veh, IBTK / RFU, ESF1 / Fold change vs veh, ESF1 / Fold change vs veh, TMEM50B / RFU, TAOK1 / Fold change vs veh, TAOK1 / RFU, ACBD3 / Fold change vs veh, ACBD3 / RFU, TMA16 / Fold change vs veh, TMA16 / RFU, RWDD3 / Fold change vs veh, RWDD3 / RFU, BCAT1 / Fold change vs veh, BCAT1 / RFU, EDEM3 / Fold change vs veh, EDEM3 / RFU, TMEM33 / Fold change vs veh, TMEM33 / RFU, WDR75 / Fold change vs veh, WDR75 / RFU, AHCTF1 / Fold change vs veh, AHCTF1 / RFU, TFRC / Fold change vs veh, TFRC / RFU, ZDHHC17 / Fold change vs veh, ZDHHC17 / RFU, NOM1 / Fold change vs veh, NOM1 / RFU, ARL8B / Fold change vs veh, ARL8B / RFU, ZBTB11 / Fold change vs veh, ZBTB11 / RFU, TAMM41 / Fold change vs veh, TAMM41 / RFU, KIAA1704 /// LOC100996395 / Fold change vs veh, KIAA1704 /// LOC100996395 / RFU, ING1 / Fold change vs veh, ING1 / RFU, TRMT61B / Fold change vs veh, TRMT61B / RFU, FUBP3 / Fold change vs veh, FUBP3 / RFU, TP53 / Fold change vs veh, TP53 / RFU, TNKS2 / Fold change vs veh, TNKS2 / RFU, ZFP14 / Fold change vs veh, ZFP14 / RFU, ACTR2 / Fold change vs veh, ACTR2 / RFU, PPP3R1 / Fold change vs veh, PPP3R1 / RFU, PIK3R1 / Fold change vs veh, PIK3R1 / RFU, HNRNPA1 / Fold change vs veh, HNRNPA1 / RFU, RNF170 / Fold change vs veh, RNF170 / RFU, ZNF28 / Fold change vs veh, ZNF28 / RFU, RNGTT / Fold change vs veh, RNGTT / RFU, OGT / Fold change vs veh, OGT / RFU, BRD1 / Fold change vs veh, BRD1 / RFU, MARS / Fold change vs veh, MARS / RFU, ZNF655 / Fold change vs veh, ZNF655 / RFU, FAHD1 / Fold change vs veh, FAHD1 / RFU, BDP1 / Fold change vs veh, BDP1 / RFU, LRRCC1 / Fold change vs veh, LRRCC1 / RFU, ARID1A / Fold change vs veh, ARID1A / RFU, ZNF146 / Fold change vs veh, ZNF146 / RFU, ZNF330 / Fold change vs veh, ZNF330 / RFU, GPN3 / Fold change vs veh, GPN3 / RFU, C9orf123 / Fold change vs veh, C9orf123 / RFU, N4BP2L2 / Fold change vs veh, N4BP2L2 / RFU, ARFIP1 / Fold change vs veh, ARFIP1 / RFU, FAM179B / Fold change vs veh, FAM179B / RFU, BCL10 / Fold change vs veh, BCL10 / RFU, UHRF1BP1L / Fold change vs veh, UHRF1BP1L / RFU, BET1 / Fold change vs veh, BET1 / RFU, CNOT2 / Fold change vs veh, CNOT2 / RFU, ZNF268 / Fold change vs veh, ZNF268 / Fold change vs veh, ZNF507 / RFU, DGCR2 / Fold change vs veh, DGCR2 / RFU, WDSUB1 / Fold change vs veh, WDSUB1 / Fold change vs veh, HSP90B1 /// MIR3652 / RFU, ADSS / Fold change vs veh, ADSS / RFU, GK / Fold change vs veh, GK / RFU, ZNF148 / Fold change vs veh, ZNF148 / RFU, TAF9 / Fold change vs veh, TAF9 / RFU, SLC1A5 / Fold change vs veh, SLC1A5 / RFU, SLMO2 / Fold change vs veh, SLMO2 / RFU, ABCC4 / Fold change vs veh, ABCC4 / RFU, LOC101060439 /// RAP1B / Fold change vs veh, LOC101060439 /// RAP1B / RFU, RFX7 / Fold change vs veh, RFX7 / RFU, GTPBP10 / Fold change vs veh, GTPBP10 / RFU, CNEP1R1 / Fold change vs veh, CNEP1R1 / RFU, BIVM-ERCC5 /// ERCC5 / Fold change vs veh, BIVM-ERCC5 /// ERCC5 / RFU, ILF3 / Fold change vs veh, ILF3 / RFU 11762660_at / Fold change /veh 11762660_at / RFU VCAN (11757783_s_at) / Fold change /veh VCAN (11757783_s_at) / RFU DDX43 (11728927_at) / Fold change /veh DDX43 (11728927_at) / RFU KRT8 (11758188_x_at) / Fold change /veh KRT8 (11758188_x_at) / RFU NKD1 (11759106_at) / Fold change /veh NKD1 (11759106_at) / RFU SRD5A1 (11742802_a_at) / Fold change /veh SRD5A1 (11742802_a_at) / RFU TPSAB1 /// TPSB2 (11721975_s_at) / Fold change /veh TPSAB1 /// TPSB2 (11721975_s_at) / RFU GSTM3 (11746129_a_at) / Fold change /veh GSTM3 (11746129_a_at) / RFU IL23R (11737362_x_at) / Fold change /veh IL23R (11737362_x_at) / RFU TMEM51 (11727254_a_at) / Fold change /veh TMEM51 (11727254_a_at) / RFU PIWIL2 (11732686_x_at) / Fold change /veh PIWIL2 (11732686_x_at) / RFU ORM1 (11744905_x_at) / Fold change /veh ORM1 (11744905_x_at) / RFU CCDC152 (11743942_at) / Fold change /veh CCDC152 (11743942_at) / RFU ECM1 (11717891_a_at) / Fold change /veh ECM1 (11717891_a_at) / RFU IL23R (11748794_a_at) / Fold change /veh IL23R (11748794_a_at) / RFU TNFAIP8L3 (11732012_x_at) / Fold change /veh TNFAIP8L3 (11732012_x_at) / RFU MBOAT4 (11741988_at) / Fold change /veh MBOAT4 (11741988_at) / RFU 11764193_at / Fold change /veh 11764193_at / RFU TMEM53 (11763286_at) / Fold change /veh TMEM53 (11763286_at) / RFU MAGEB2 (11727129_at) / Fold change /veh MAGEB2 (11727129_at) / RFU TMEM200A (11744735_a_at) / Fold change /veh TMEM200A (11744735_a_at) / RFU CCDC152 (11751479_a_at) / Fold change /veh CCDC152 (11751479_a_at) / RFU FAM211A (11726209_a_at) / Fold change /veh FAM211A (11726209_a_at) / RFU RGS16 (11746705_a_at) / Fold change /veh RGS16 (11746705_a_at) / RFU VCAN (11755009_s_at) / Fold change /veh VCAN (11755009_s_at) / RFU RHOB (11743442_s_at) / Fold change /veh RHOB (11743442_s_at) / RFU RGS16 (11720943_a_at) / Fold change /veh RGS16 (11720943_a_at) / RFU RGS16 (11720944_at) / Fold change /veh RGS16 (11720944_at) / RFU, VPS4B / Fold change vs veh, VPS4B / RFU, CREB1 / Fold change vs veh, CREB1 / RFU, DNAJC13 / Fold change vs veh, DNAJC13 / RFU, GNAQ / Fold change vs veh, GNAQ / RFU, CDK5R1 / Fold change vs veh, CDK5R1 / RFU, ZRANB3 / Fold change vs veh, ZRANB3 / RFU, CUL4A / Fold change vs veh, CUL4A / RFU, CCNY / Fold change vs veh, CCNY / RFU, UFL1 / Fold change vs veh, UFL1 / RFU, COG3 / Fold change vs veh, COG3 / RFU, DIAPH2 / Fold change vs veh, DIAPH2 / RFU, SKA2 / Fold change vs veh, SKA2 / RFU, AFF3 / Fold change vs veh, AFF3 / RFU, LMF1 / Fold change vs veh, LMF1 / RFU, IPO11 / Fold change vs veh, IPO11 / RFU, DFFB / Fold change vs veh, DFFB / RFU, FOXP1 / Fold change vs veh, FOXP1 / RFU, CARD8 / Fold change vs veh, CARD8 / RFU, STRN3 / Fold change vs veh, STRN3 / RFU, ADK / Fold change vs veh, ADK / RFU, RASSF2 / Fold change vs veh, RASSF2 / RFU, WIPF1 / Fold change vs veh, WIPF1 / RFU, LARP1B / Fold change vs veh, LARP1B / RFU, RASA1 / Fold change vs veh, RASA1 / RFU, RB1 / Fold change vs veh, RB1 / RFU, PPFIA1 / Fold change vs veh, PPFIA1 / RFU, MAT2A / Fold change vs veh, MAT2A / RFU, CCT5 / Fold change vs veh, CCT5 / RFU, WDR92 / Fold change vs veh, WDR92 / RFU, CUX1 / Fold change vs veh, CUX1 / RFU, TTC7A / Fold change vs veh, TTC7A / RFU, TMEM135 / Fold change vs veh, TMEM135 / RFU, DEPTOR / Fold change vs veh, DEPTOR / RFU, CPM / Fold change vs veh, CPM / RFU, DNAJB6 / Fold change vs veh, DNAJB6 / RFU, CACNA2D3 / Fold change vs veh, CACNA2D3 / RFU, DTX4 / Fold change vs veh, DTX4 / RFU, TFCP2 / Fold change vs veh, TFCP2 / RFU, GMCL1 /// GMCL1P1 / Fold change vs veh, GMCL1 /// GMCL1P1 / RFU, AEBP2 / Fold change vs veh, AEBP2 / RFU, SNHG1 /// SNORD22 /// SNORD25 /// SNORD26 /// SNORD27 /// SNORD28 /// SNORD29 /// SNORD31 / Fold change vs veh, SNHG1 /// SNORD22 /// SNORD25 /// SNORD26 /// SNORD27 /// SNORD28 /// SNORD29 /// SNORD31 / Fold change (Aza/veh), C12orf56 (ProbeSet 11735607_a_at) / Fold change (ACY-1035/veh), C12orf56 (ProbeSet 11735607_a_at) / Fold change (Aza/veh), FGFR1OP (ProbeSet 11751329_s_at) / Fold change (ACY-1035/veh), FGFR1OP (ProbeSet 11751329_s_at) / Fold change (Aza/veh), VPS36 (ProbeSet 11739960_a_at) / Fold change (ACY-1035/veh), VPS36 (ProbeSet 11739960_a_at) / RFU SYPL1 (11715823_x_at) / Fold change /veh SYPL1 (11715823_x_at) / RFU IGFBP7 (11715501_s_at) / Fold change /veh IGFBP7 (11715501_s_at) / RFU REEP3 (11722064_at) / Fold change /veh REEP3 (11722064_at) / RFU IGLL1 (11728026_x_at) / Fold change /veh IGLL1 (11728026_x_at): dose or concentration left out as unconfirmed
Conditions: MV-4-11 cells, 48 hours

Compound: Nc1ncn([C@@H]2O[C@H](CO)[C@@H](O)[C@H]2O)c(=O)n1 [azacitidine]
- Fold change /veh VCAN (11755009_s_at): 1.97
